Reference: patent US20240368163A1, “COMPOUNDS AND METHODS FOR MODULATING SPLICING” (REMIX THERAPEUTICS INC., priority 2021, published 2024)
Read-outs that look alike come from different tables or passages of the source.

Experiments:
Format in all cases: cell-based, human
MYB = experiment: Splicing RT-qPCR assay, MYB mRNA canonical junction (CJ) and alternative junction (AJ); settings: Homo sapiens; for AC50: increase in AJ mRNA
In short: (§1)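 Cells: A673 (DMEM/10% FBS) or K562 (IMDM/10% FBS). Dose: 11-pt 3-fold, top 10 uM final, ≤0.25% DMSO, 24 h, 37 °C. Readout: RT-qPCR of CJ/AJ exon junctions, ΔΔCt vs housekeeper and DMSO, RQ to % response.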

Target C [1] = experiment: HiBiT protein abundance assay, Target C; settings: Homo sapiens, K562, 24 h, Table 13A, modified K562 cells
In short: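 Cells carrying the HiBiT knock-in were plated at 10000 cells/well, dosed with compound (10-point, 3-fold, 10 μM top final) and incubated 24 hours at 37 °C. Lytic reagent was then added and luminescence read. Percent response fed a 4PL fit for IC50.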

SMN2 = experiment: Splicing RT-qPCR panel, SMN2 canonical junction (CJ) mRNA; settings: Homo sapiens, RT-qPCR panel, canonical junction mRNA; compound concentration having 50% response in CJ decrease; read-out: SMN2 IC50 (decrease in CJ mRNA levels)
In short: as §1

Target C [2] = experiment: Splicing RT-qPCR panel, Target C canonical junction (CJ) mRNA; settings: Homo sapiens, RT-qPCR panel, canonical junction mRNA; compound concentration having 50% response in CJ decrease; read-out: Target C IC50 (decrease in CJ mRNA levels)
In short: as §1

[3] = 24 h, decrease in CJ mRNA, A673 or K562 cells, 24 hours treatment, RT-qPCR, read-out: MYB CJ IC50
[4] = 24 h, A673 or K562 cells, 24 hours treatment, RT-qPCR
[5] = RT-qPCR panel, canonical junction mRNA, compound concentration having 50% response in CJ decrease, read-out: MYB IC50 (decrease in CJ mRNA levels)

Compound | IC50 (MYB; [3]) | AC50 (MYB; [4]) | IC50 (MYB; [5]) | IC50 (Target C [1]) | IC50 (SMN2) | IC50 (Target C [2])
CN(c1ccc(-c2cc(F)c(-c3cn[nH]c3)c3cn[nH]c23)nn1)[C@@H]1C[C@H]2CC(F)(F)[C@@H](C1)N2 (stereo in doubt) [Compound 378, 6,6-difluoro-N-{6-[5-fluoro-4-(1H-pyrazol-4-yl)-1H-indazol-7-yl]pyridazin-3-yl}-N-methyl-8-azabicyclo[3.2.1]octan-3-amine] | 100 to 1000 nM | < 100 nM | 100 to 1000 nM | < 100 nM | < 100 nM | 100 to 1000 nM
CN(c1ccc(-c2ccc(-c3cn[nH]c3)c3ncsc23)nn1)[C@@H]1C[C@H]2CC(F)(F)[C@@H](C1)N2 (stereo in doubt) [Compound 379, 6,6-difluoro-N-methyl-N-{6-[4-(1H-pyrazol-4-yl)-1,3-benzothiazol-7-yl]pyridazin-3-yl}-8-azabicyclo [3.2.1]octan-3-amine] | 100 to 1000 nM | 100 to 1000 nM | 100 to 1000 nM | 100 to 1000 nM | < 100 nM | 100 to 1000 nM
CN(c1ccc(-c2ccc(-c3cn[nH]c3)c3cn[nH]c23)nn1)[C@@H]1C[C@H]2CC[C@@H](C1)N2 [Compound 104] | 1000 to 10000 nM | 1000 to 10000 nM | 1000 to 10000 nM | 100 to 1000 nM | < 100 nM | 100 to 1000 nM
CN(c1ccc(-c2ccc(-n3cccn3)c3cn[nH]c23)nn1)[C@@H]1C[C@H]2CC[C@@H](C1)N2 [Compound 105] | < 100 nM | 100 to 1000 nM | < 100 nM | < 100 nM | < 100 nM | < 100 nM
CN(c1ccc(-c2ccc(-c3cn[nH]c3)c3ncsc23)nn1)C1CC(C)(C)NC(C)(C)C1 [Compound 132] | 100 to 1000 nM | 1000 to 10000 nM | 100 to 1000 nM | 100 to 1000 nM | < 100 nM | 100 to 1000 nM
CN(c1ccc(-c2ccc(-c3cn[nH]c3)c3cn[nH]c23)nn1)C1CC(C)(C)NC(C)(C)C1 [Compound 137] | 1000 to 10000 nM | 1000 to 10000 nM | 1000 to 10000 nM | 100 to 1000 nM | 100 to 1000 nM | 1000 to 10000 nM
CN(c1ccc(-c2ccc(-c3ccc(=O)n(C)c3)c3scnc23)nn1)C1CC(C)(C)NC(C)(C)C1 [Compound 178] | 1000 to 10000 nM | > 10000 nM | 1000 to 10000 nM | > 10000 nM | > 10000 nM | > 10000 nM
CC1(C)CC(Oc2ccc(-c3ccc(-c4cn[nH]c4)c4ncsc34)nn2)CCN1 (stereo not drawn) [Compound 182] | 1000 to 10000 nM | > 10000 nM | 1000 to 10000 nM | 100 to 1000 nM | 100 to 1000 nM | 1000 to 10000 nM
c1nc2c(-c3cn[nH]c3)ccc(-c3ccc(OC4CCNCC4)nn3)c2s1 [Compound 183] | 100 to 1000 nM | 100 to 1000 nM | 100 to 1000 nM | < 100 nM | 100 to 1000 nM | 100 to 1000 nM
c1nc2c(-c3cn[nH]c3)ccc(-c3ccc(O[C@@H]4C[C@H]5CC[C@@H](C4)N5)nn3)c2s1 [Compound 184] | 100 to 1000 nM | < 100 nM | 100 to 1000 nM | 100 to 1000 nM | < 100 nM | 100 to 1000 nM
CC1(C)CC(Nc2ccc(-c3ccc(-c4cn[nH]c4)c4ncsc34)nn2)CC(C)(C)N1 [Compound 186] | 100 to 1000 nM | > 10000 nM | 100 to 1000 nM | < 100 nM | < 100 nM | 100 to 1000 nM
c1nc2c(-c3cn[nH]c3)ccc(-c3ccc(N[C@@H]4C[C@H]5CC[C@@H](C4)N5)nn3)c2s1 [Compound 202] | 100 to 1000 nM | 100 to 1000 nM | 100 to 1000 nM | 100 to 1000 nM | < 100 nM | 100 to 1000 nM
CCN(c1ccc(C2=CC=C(c3cn[nH]c3)C3N=CSC23)nn1)[C@@H]1C[C@H]2CC[C@@H](C1)N2 (stereo partly drawn) [Compound 203] | 100 to 1000 nM | 100 to 1000 nM | 100 to 1000 nM | < 100 nM | < 100 nM | 100 to 1000 nM
CN(c1ccc(-c2ccc(-c3cn[nH]c3)c3ncsc23)nn1)[C@H]1C[C@]2(C)CC[C@](C)(C1)N2 [Compound 204] | < 100 nM | 100 to 1000 nM | < 100 nM | < 100 nM | < 100 nM | < 100 nM
[2H]C([2H])([2H])N(c1ccc(-c2ccc(-c3cn[nH]c3)c3ncsc23)nn1)[C@@H]1C[C@H]2CC[C@@H](C1)N2 [Compound 210] | < 100 nM | < 100 nM | < 100 nM | < 100 nM | < 100 nM | < 100 nM
CN(c1ccc(-c2ccc(-c3cn[nH]c3)c3ncsc23)nn1)[C@@H]1C[C@H]2CC[C@@H](C1)N2 [Compound 213] | 100 to 1000 nM | 100 to 1000 nM | 100 to 1000 nM | < 100 nM | < 100 nM | < 100 nM
c1nc2c(-c3cn[nH]c3)ccc(-c3ccc(N[C@@H]4C[C@H]5CCC[C@@H](C4)N5)nn3)c2s1 [Compound 215] | 100 to 1000 nM | < 100 nM | 100 to 1000 nM | < 100 nM | < 100 nM | < 100 nM
Fc1cc(-c2ccc(O[C@@H]3C[C@H]4CC[C@@H](C3)N4)nn2)c2[nH]ncc2c1-c1cn[nH]c1 [Compound 216] | 100 to 1000 nM | < 100 nM | 100 to 1000 nM | 100 to 1000 nM | < 100 nM | 100 to 1000 nM
CN(c1ccc(-c2ccc(-c3cn[nH]c3)c3ncsc23)nn1)[C@@H]1C[C@H]2CCC[C@@H](C1)N2 [Compound 226] | < 100 nM | < 100 nM | < 100 nM | < 100 nM | < 100 nM | < 100 nM
[2H]C([2H])([2H])N(c1ccc(-c2ccc(-c3cn[nH]c3)c3ncsc23)nn1)[C@@H]1C[C@H]2CCC[C@@H](C1)N2 [Compound 227] | < 100 nM | < 100 nM | < 100 nM | < 100 nM | < 100 nM | < 100 nM
CCN(c1ccc(-c2ccc(-c3cn[nH]c3)c3ncsc23)nn1)[C@@H]1C[C@H]2CCC[C@@H](C1)N2 [Compound 228] | 100 to 1000 nM | 100 to 1000 nM | 100 to 1000 nM | < 100 nM | < 100 nM | < 100 nM
CN(c1ccc(-c2ccc(-c3cnn(C)c3)c3cn[nH]c23)nn1)C1CCNCC1 [Compound 242] | > 10000 nM | > 10000 nM | > 10000 nM | > 10000 nM | 1000 to 10000 nM | > 10000 nM
CN(c1ccc(-c2cc(F)c(-c3cnn(C)c3)c3cn[nH]c23)nn1)[C@@H]1C[C@H]2CC[C@@H](C1)N2 [Compound 291] | < 100 nM | < 100 nM | < 100 nM | < 100 nM | < 100 nM | < 100 nM
c1n[nH]cc1-c1ccc(-c2ccc(N[C@@H]3C[C@H]4CCC[C@@H](C3)N4)nn2)c2[nH]ncc12 [Compound 294] | 100 to 1000 nM | 100 to 1000 nM | 100 to 1000 nM | 100 to 1000 nM | < 100 nM | 100 to 1000 nM
